Values joined by “and” are separate entries in the source; they are usually repeats but may differ in a detail not shown here. Equal entries are not always repeated. Toxic doses and inconclusive results are not listed. How the source made its calls: active means survival T/C of 150% or more; inactive means T/C below 125% in these data.
Test system: P388 leukemia ip, CD2F1 mice, survival T/C
Experiment: NCI In Vivo Anticancer Drug Screen. Data for tumor model P388 Leukemia (intraperitoneal) in CD2F1 (CDF1) mice
Conditions: endpoint: median survival time, higher = longer survival
Summary of the method: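 Mice carrying the transplanted tumor received test compound or vehicle. Survival was recorded in each group, and the value is the treated-group measurement divided by that of the vehicle-treated control group.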

[1] = dose: 120.0 mg/kg/injection, schedule: Q01DX005 (ip), vehicle: saline with Tween-80
[2] = dose: 200.0 mg/kg/injection, schedule: Q01DX001 (ip), vehicle: saline with Tween-80
[3] = dose: 200.0 mg/kg/injection, schedule: Q01DX005 (ip), vehicle: saline with Tween-80
[4] = dose: 60.0 mg/kg/injection, schedule: Q01DX005 (ip), vehicle: saline with Tween-80
[5] = dose: 240.0 mg/kg/injection, schedule: Q01DX005 (ip), vehicle: saline with Tween-80
[6] = dose: 50.0 mg/kg/injection, schedule: Q01DX009 (ip), vehicle: Klucel (hydroxypropylcellulose) (HPC)
[7] = dose: 100.0 mg/kg/injection, schedule: Q01DX009 (ip), vehicle: Klucel (hydroxypropylcellulose) (HPC)
[8] = dose: 200.0 mg/kg/injection, schedule: Q01DX009 (ip), vehicle: Klucel (hydroxypropylcellulose) (HPC)
[9] = dose: 50.0 mg/kg/injection, schedule: Q01DX005 (ip), vehicle: Klucel (hydroxypropylcellulose) (HPC)
[10] = dose: 100.0 mg/kg/injection, schedule: Q01DX005 (ip), vehicle: Klucel (hydroxypropylcellulose) (HPC)
[11] = dose: 100.0 mg/kg/injection, schedule: Q01DX001 (ip), vehicle: saline with Tween-80
[12] = dose: 50.0 mg/kg/injection, schedule: Q01DX005 (ip), vehicle: saline with Tween-80
[13] = dose: 100.0 mg/kg/injection, schedule: Q01DX005 (ip), vehicle: saline with Tween-80

Measured: T/C

CCc1nc(N)nc(N)c1-c1ccc(N2CCCCC2)cc1
inactive: dose: 7.5 mg/kg/injection, schedule: Q01DX005 (ip), vehicle: saline with Tween-80 112 % of control | dose: 15.0 mg/kg/injection, schedule: Q01DX005 (ip), vehicle: saline with Tween-80 100 % of control | dose: 30.0 mg/kg/injection, schedule: Q01DX005 (ip), vehicle: saline with Tween-80 99 % of control

O=C(O)CCC(CS)C(=O)O (centres undefined)
inactive: dose: 0.5 mg/kg/injection, schedule: Q01DX005 (ip), vehicle: saline 100 % of control | dose: 1.0 mg/kg/injection, schedule: Q01DX005 (ip), vehicle: saline 100 % of control | dose: 2.0 mg/kg/injection, schedule: Q01DX005 (ip), vehicle: saline 100 % of control | dose: 4.0 mg/kg/injection, schedule: Q01DX005 (ip), vehicle: saline 98 % of control | dose: 8.0 mg/kg/injection, schedule: Q01DX005 (ip), vehicle: saline 98 % of control | dose: 16.0 mg/kg/injection, schedule: Q01DX005 (ip), vehicle: saline 112 % of control | dose: 32.0 mg/kg/injection, schedule: Q01DX005 (ip), vehicle: saline 100 % of control | dose: 64.0 mg/kg/injection, schedule: Q01DX005 (ip), vehicle: saline 96 % of control | dose: 128.0 mg/kg/injection, schedule: Q01DX005 (ip), vehicle: saline 89 % of control

CCN(CC)c1ccc(C(C#N)(c2ccc(N(CC)Cc3cccc(S(=O)(=O)O)c3)cc2)c2ccc(N(CC)Cc3cccc(S(=O)(=O)O)c3)cc2)cc1
inactive: dose: 72.0 mg/kg/injection, schedule: Q01DX001 (ip), vehicle: saline with Tween-80 98 % of control and 102 % of control | dose: 72.0 mg/kg/injection, schedule: Q01DX005 (ip), vehicle: saline with Tween-80 99 % of control | dose: 120.0 mg/kg/injection, schedule: Q01DX001 (ip), vehicle: saline with Tween-80 104 % of control and 92 % of control | [1] 92 % of control | [2] 90 % of control and 96 % of control | [3] 98 % of control

Cc1cccnc1I
inactive: [4] 98 % of control | [1] 99 % of control | [5] 101 % of control

CCCCN(C)C12CN3CN(CN(C3)C1)C2
inactive: [6] 101 % of control | [7] 103 % of control | [8] 96 % of control

O=C(c1ccc(Cl)c(Cl)c1)N1CCNC1=S
inactive: [6] 104 % of control | [7] 104 % of control | [8] 100 % of control

CN(C)CCCOc1ccc(NC2=C(Cl)C(=O)C(Nc3ccc(OCCCN(C)C)cc3)=C(Cl)C2=O)cc1
inactive: dose: 6.25 mg/kg/injection, schedule: Q01DX005 (ip), vehicle: suspension in saline 101 % of control | dose: 12.5 mg/kg/injection, schedule: Q01DX005 (ip), vehicle: suspension in saline 101 % of control | dose: 25.0 mg/kg/injection, schedule: Q01DX005 (ip), vehicle: suspension in saline 103 % of control

COc1ccc2c(c1OC)C(=O)O[C@@H]2[C@H]1c2cc3c(cc2CCN1C)OCO3
inactive: dose: 10.0 mg/kg/injection, schedule: Q01DX009 (ip), vehicle: saline 108 % of control | dose: 20.0 mg/kg/injection, schedule: Q01DX009 (ip), vehicle: saline 114 % of control | dose: 40.0 mg/kg/injection, schedule: Q01DX009 (ip), vehicle: saline 108 % of control | dose: 80.0 mg/kg/injection, schedule: Q01DX009 (ip), vehicle: saline 99 % of control

CC1(C)[S][Sn]2[NH]C1C(=O)[O]2 (centres undefined)
inactive: [9] 98 % of control | [10] 94 % of control

CN(C)c1ccc(P(=O)(O)O)c(Cl)c1
inactive: dose: 100.0 mg/kg/injection, schedule: Q01DX001 (ip), vehicle: Klucel (hydroxypropylcellulose) (HPC) 99 % of control | dose: 200.0 mg/kg/injection, schedule: Q01DX001 (ip), vehicle: Klucel (hydroxypropylcellulose) (HPC) 96 % of control | dose: 400.0 mg/kg/injection, schedule: Q01DX001 (ip), vehicle: Klucel (hydroxypropylcellulose) (HPC) 96 % of control

Nc1cccc(OCCOc2cccc(S(=O)(=O)F)c2)c1
inactive: dose: 50.0 mg/kg/injection, schedule: Q01DX001 (ip), vehicle: saline with Tween-80 109 % of control | [11] 100 % of control | [2] 100 % of control

Nc1ccc2ccc(N)nc2c1
inactive: dose: 50.0 mg/kg/injection, schedule: Q01DX009 (ip), vehicle: acid diluted with saline 105 % of control

CC(=O)Nc1ccc(S(=O)(=O)Nc2ccc(O)c3ccccc23)cc1
inactive: dose: 50.0 mg/kg/injection, schedule: Q04DX003 (ip), vehicle: saline with Tween-80 88 % of control | dose: 100.0 mg/kg/injection, schedule: Q04DX003 (ip), vehicle: saline with Tween-80 90 % of control | dose: 200.0 mg/kg/injection, schedule: Q04DX003 (ip), vehicle: saline with Tween-80 100 % of control | dose: 400.0 mg/kg/injection, schedule: Q04DX003 (ip), vehicle: saline with Tween-80 117 % of control

ClCCN1c2ccc3ccccc3c2Sc2ccc3ccccc3c21
inactive: [12] 95 % of control | [13] 89 % of control

COc1cccc(C(=O)CC[N+](C)(C)C)c1
inactive: dose: 3.13 mg/kg/injection, schedule: Q01DX009 (ip), vehicle: saline with Tween-80 100 % of control | dose: 6.25 mg/kg/injection, schedule: Q01DX009 (ip), vehicle: saline with Tween-80 102 % of control | dose: 12.5 mg/kg/injection, schedule: Q01DX009 (ip), vehicle: saline with Tween-80 103 % of control

COC(=O)CCC#N
inactive: dose: 100.0 mg/kg/injection, schedule: Q01DX009 (ip), vehicle: saline 97 % of control | dose: 200.0 mg/kg/injection, schedule: Q01DX009 (ip), vehicle: saline 109 % of control | dose: 400.0 mg/kg/injection, schedule: Q01DX009 (ip), vehicle: saline 107 % of control

O=C1OCCCCOC(=O)c2ccccc2SSc2ccccc21
inactive: [11] 90 % of control | [2] 99 % of control | dose: 400.0 mg/kg/injection, schedule: Q01DX001 (ip), vehicle: saline with Tween-80 99 % of control

Cc1cccc(C)c1NC(=O)Nc1cccc(C(F)(F)F)c1
inactive: [4] 100 % of control | [1] 100 % of control | [5] 90 % of control

O=C1NC2C=CN(Cc3ccccc3)C=C2C(=O)N2CCCC12 (centres undefined)
inactive: [4] 101 % of control | [1] 101 % of control | [5] 97 % of control

C/C(=C1/c2ccccc2-c2n[nH]c(C)c21)S(=O)(=O)O
inactive: dose: 100.0 mg/kg/injection, schedule: Q01DX009 (ip), vehicle: saline with Tween-80 109 % of control | dose: 200.0 mg/kg/injection, schedule: Q01DX009 (ip), vehicle: saline with Tween-80 109 % of control | dose: 400.0 mg/kg/injection, schedule: Q01DX009 (ip), vehicle: saline with Tween-80 100 % of control

CCc1nc(N)nc(N)c1-c1ccc2c(c1)nnn2CCc1ccccc1
inactive: [9] 99 % of control | [10] 96 % of control

Cc1cc(OC2OC(CO)C(O)C(O)C2O)ccc1O (centres undefined)
inactive: dose: 25.0 mg/kg/injection, schedule: Q01DX009 (ip), vehicle: Klucel (hydroxypropylcellulose) (HPC) 87 % of control | [6] 96 % of control | [8] 89 % of control

CCCCCCCCCCC1SCC(=O)N1c1nncs1 (centres undefined)
inactive: [4] 102 % of control | [1] 97 % of control | [5] 94 % of control

COC(=O)c1cc(C)c(NC(C)=O)cc1C
inactive: dose: 12.5 mg/kg/injection, schedule: Q01DX009 (ip), vehicle: distilled water + Tween-80 100 % of control | dose: 25.0 mg/kg/injection, schedule: Q01DX009 (ip), vehicle: distilled water + Tween-80 98 % of control | dose: 50.0 mg/kg/injection, schedule: Q01DX009 (ip), vehicle: distilled water + Tween-80 90 % of control | dose: 100.0 mg/kg/injection, schedule: Q01DX009 (ip), vehicle: distilled water + Tween-80 98 % of control | dose: 200.0 mg/kg/injection, schedule: Q01DX009 (ip), vehicle: distilled water + Tween-80 89 % of control

CCCCCCCC(=O)Nc1cc2c3c(c1)CCC(=O)N3CCC2
inactive: [9] 100 % of control | [10] 100 % of control | dose: 200.0 mg/kg/injection, schedule: Q01DX005 (ip), vehicle: Klucel (hydroxypropylcellulose) (HPC) 98 % of control

OCCCCC/C=C/CCCCCCC1C=CCC1 (centres undefined)
inactive: dose: 100.0 mg/kg/injection, schedule: Q01DX001 (ip), vehicle: saline 99 % of control | dose: 200.0 mg/kg/injection, schedule: Q01DX001 (ip), vehicle: saline 99 % of control | dose: 400.0 mg/kg/injection, schedule: Q01DX001 (ip), vehicle: saline 99 % of control

O=c1[nH]ncc2c1Sc1cn[nH]c(=O)c1S2
inactive: [12] 97 % of control | [13] 104 % of control | [3] 100 % of control
